From paper PMC4363471, “Crystal Structure of Helicobacter pylori Pseudaminic Acid Biosynthesis N-Acetyltransferase PseH: Implications for Substrate Specificity and Catalysis” (PLoS ONE, 2015)

Target: T1, PseH (Helicobacter pylori, UniProt O25094)
T1 construct: recombinant; 21 kDa; homodimer
Assay: X-ray crystal structure ([…] Å, co-crystallization)
Assay type: binding
Conditions: co-crystallized with 5 mM AcCoA; cofactor site between strands β4 and β5

T1 sequence (O25094 whole entry): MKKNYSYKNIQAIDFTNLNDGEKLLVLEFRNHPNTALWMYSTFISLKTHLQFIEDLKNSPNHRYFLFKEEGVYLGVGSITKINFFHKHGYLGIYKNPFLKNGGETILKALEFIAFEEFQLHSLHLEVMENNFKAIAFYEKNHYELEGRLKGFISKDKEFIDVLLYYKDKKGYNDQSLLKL

In the case of CC(=O)SCCNC(=O)CCNC(=O)[C@H](O)C(C)(C)COP(=O)(O)OP(=O)(O)OC[C@H]1O[C@@H](n2cnc3c(N)ncnc32)[C@H](O)[C@@H]1OP(=O)(O)O [AcCoA], the “X-ray crystal structure (2.3 Å, co-crystallization)” value is reported as “Analysis of the difference Fourier map revealed an AcCoA binding site between the splayed strands”.
